# What was measured:
# [1] = tested on: Escherichia coli AB1157; assay: microbe, parasite or virus in culture
# [2] = tested on: Escherichia coli AB1157 ΔtolC; assay: Checkerboard MIC assay (antibacterial agent + MBX2319); assay type: cell-based
# From the text: (§1) • Strains and Reagents. The following strains were obtained from the Keio collection (Baba, et al.: Construction of Escherichia coli K-12 in-frame, single-gene knockout mutants: the Keio collection. In Mol Syst Biol, vol. 2, pp. 2006 0008, (2006)): JW0451 (ΔacrB::kan), JW5503 (ΔtolC::kan), JW3234 (ΔacrF::kan), JW2661 (ΔemrB::kan), JW0863 (ΔmacB::kan). The deletion mutations in each of these strains were transferred to AB1157 using P1 phage transduction (see Table 1). The construction of the E. coli cell-based reporter strain (SOS-XXX) that was used for high throughput screening is described in detail in the supplementary information. […] Irgasan was a generous gift from Ciba Speciality Chemicals, Inc. (High Point, N.C.). Hoechst 33342 (H33342) was purchased from Molecular Probes (Eugene, Oreg.). […] Luria Broth (Miller) and agar were purchased as prepared dehydrated media from Becton Dickenson (Franklin Lakes, N.J.). The compound libraries used in high-throughput screens were purchased from Chembridge (San Diego, Calif.), ChemDiv (San Diego, Calif.), and TimTec (Newark, Del.). MBX2319 was synthesized by Microbiotix, Inc. • Antibacterial Activity Assays. The minimal inhibitory concentration (MIC) of antibacterial agents and biocides were determined using the microbroth dilution method essentially as described in the CLSI protocol M7-A7 (CLSI: Method for dilution antimicrobial susceptibility testing for bacteria that grow aerobically; Approved standard-document M7-A7. In Clinical and Laboratory Standards Institute document M7-A7, Clinical and Laboratory Standards Institute, Wayne, Pa., (2006)), with the following exceptions. LB media was used instead of MHB. […] The final concentration of DMSO in each assay was 2%. […] MIC assays were performed in triplicate and the geometric mean was calculated. Checkerboard MIC assays using an EPI and an antibacterial agent were performed essentially as described (Pillai, et al.: Antimicrobial Combinations. In Antibiotics in Laboratory Medicine, ed. by V. Lorian, pp. 365-440, Lippincott Williams & Wilkins, Philadelphia, Pa., (2005)), with the same modifications used for the MIC assays described above. • Time-Kill Assays. Killing curve assays were performed essentially as described (Pillai, et al.: Antimicrobial Combinations. In Antibiotics in Laboratory Medicine, ed. by V. Lorian, pp. 365-440, Lippincott Williams & Wilkins, Philadelphia, Pa., (2005)). Exponential bacterial cultures grown in LB were diluted to a cell density of ˜1×10^7 in LB followed by addition of CIP and/or an EPI. Viability was monitored over 2-4 hours by making serial dilutions in saline and spotting 5 μl of each dilution onto the surface of an LB agar plate in triplicate. Colonies were counted after the plates were incubated at 37° C. for 16-18 hr, colony forming units (CFU) per ml were calculated, and the average and standard deviation for the three replicates was determined. For treatments that decreased CFU/ml below the limit of detection for the spot plating method, the 100 μl samples were diluted into 5 ml LB top agar, were poured onto LB agar plates, and incubated for 18 hr at 37° C. To calculate the fraction of the control for each sample, the average CFU/ml values for treated samples were divided by those from the same sample at 0 h (time=0). Each experiment was repeated at least three times, and a representative experiment is shown. • H33342 Accumulation Assay. The rate of accumulation of the fluorescent dye Hoechst 33342 (H33342), which is a substrate of a wide variety of bacterial efflux pumps (van den Berg van Saparoea, et al., Biochemistry, vol. 44, pp. 16931-16938, (2005)), can be used to estimate the activity of the major efflux pumps in E. coli and many other bacterial species. The H33342 accumulation assay was used to evaluate the effect of EPIs on the activity of the AcrAB-TolC efflux pump in several bacterial species essentially as described (Coldham, et al., J Antimicrob Chemother, vol. 65, pp. 1655-1663, (2010)). […]
# [3] = tested on: Escherichia coli AB1157 (WT); assay: as above; assay type: cell-based; conditions: WT
# From the text: as §1
# [4] = tested on: Escherichia coli AB1157 ΔacrF; assay: as above; assay type: cell-based
# From the text: as §1
# [5] = tested on: Escherichia coli AB1157 ΔacrB; assay: as above; assay type: cell-based
# From the text: as §1
# [6] = tested on: Escherichia coli AB1157; assay: MIC assay (microbroth dilution) ± 25 μM EPI; assay type: cell-based; conditions: E. coli AB1157 (WT); + 25 μM MBX2319; geometric mean
# From the text: as §1
# [7] = tested on: Escherichia coli 331; assay: MIC assay (microbroth dilution) ± 25 μM EPI; assay type: cell-based; conditions: E. coli 331
# From the text: as §1
# [8] = tested on: Klebsiella pneumoniae ATCC 700603; assay: MIC assay (microbroth dilution) ± 25 μM EPI; assay type: cell-based
# From the text: as §1
# [9] = tested on: Escherichia coli ATCC 25922; assay: MIC assay (microbroth dilution) ± 25 μM EPI; assay type: cell-based; conditions: E. coli ATCC 25922
# From the text: as §1
# [10] = tested on: Enterobacter aerogenes ATCC 13048; assay: MIC assay (microbroth dilution) ± 25 μM EPI; assay type: cell-based
# From the text: as §1
# [11] = tested on: Shigella flexneri ATCC 12022; assay: MIC assay (microbroth dilution) ± 25 μM EPI; assay type: cell-based
# From the text: as §1
# [12] = tested on: Salmonella enterica ATCC 14028; assay: MIC assay (microbroth dilution) ± 25 μM EPI; assay type: cell-based
# From the text: as §1
# [13] = tested on: P. aeruginosa ATCC 27853; assay: MIC assay (microbroth dilution) ± 25 μM EPI; assay type: cell-based, Pseudomonas aeruginosa
# From the text: as §1
# [14] = Escherichia coli, read-out: MIC (μg/ml) with MBX2319 at concn (μM) of: 0
compound,measurement,setting,value
C[C@H]1COc2c(N3CCN(C)CC3)c(F)cc3c(=O)c(C(=O)O)cn1c23 [Levofloxacin],MIC,[1],0.06 µg/mL
same,MIC,[2]; [14],0.016 µg/mL
same,MIC (μg/ml) with MBX2319 at concn (μM) of: 1.56,"[2]; ΔtolC, MBX2319 1.56 μM",0.016 µg/mL
same,MIC (μg/ml) with MBX2319 at concn (μM) of: 3.13,"[2]; ΔtolC, MBX2319 3.13 μM",0.016 µg/mL
same,MIC (μg/ml) with MBX2319 at concn (μM) of: 3.13,[3]; MBX2319 3.13 μM,0.016 µg/mL
same,MIC (μg/ml) with MBX2319 at concn (μM) of: 6.25,[3]; MBX2319 6.25 μM,0.016 µg/mL
same,MIC (μg/ml) with MBX2319 at concn (μM) of: 25,[3]; MBX2319 25 μM,0.016 µg/mL
same,MIC (μg/ml) with MBX2319 at concn (μM) of: 50,[3]; MBX2319 50 μM,0.016 µg/mL
same,MIC (μg/ml) with MBX2319 at concn (μM) of: 12.5,[3]; MBX2319 […],0.016 µg/mL
same,MIC,[4]; [14],0.063 µg/mL
same,MIC (μg/ml) with MBX2319 at concn (μM) of: 6.25,"[4]; ΔacrF, MBX2319 6.25 μM",0.016 µg/mL
same,MIC (μg/ml) with MBX2319 at concn (μM) of: 25,"[4]; ΔacrF, MBX2319 25 μM",0.016 µg/mL
same,MIC (μg/ml) with MBX2319 at concn (μM) of: 50,"[4]; ΔacrF, MBX2319 50 μM",0.016 µg/mL
same,MIC (μg/ml) with MBX2319 at concn (μM) of: 12.5,"[4]; ΔacrF, MBX2319 […]",0.016 µg/mL
same,MIC,[5]; [14],0.016 µg/mL
same,MIC (μg/ml) with MBX2319 at concn (μM) of: 1.56,"[5]; ΔacrB, MBX2319 1.56 μM",0.016 µg/mL
same,MIC (μg/ml) with MBX2319 at concn (μM) of: 3.13,"[5]; ΔacrB, MBX2319 3.13 μM",0.016 µg/mL
same,MIC (μg/ml) with MBX2319 at concn (μM) of: 6.25,"[5]; ΔacrB, MBX2319 6.25 μM",0.016 µg/mL
same,MIC (μg/ml) with MBX2319 at concn (μM) of: 25,"[5]; ΔacrB, MBX2319 25 μM",0.016 µg/mL
same,MIC (μg/ml) with MBX2319 at concn (μM) of: 50,"[5]; ΔacrB, MBX2319 50 μM",0.016 µg/mL
same,MIC (μg/ml) with MBX2319 at concn (μM) of: 12.5,"[5]; ΔacrB, MBX2319 […]",0.016 µg/mL
same,MICs (μg/ml) ± EPIs: MBX2319,[6],0.016 µg/mL
same,MIC (μg/ml) ± EPI: MBX2319,[7]; + 25 μM MBX2319,11.3 µg/mL
same,MIC (μg/ml) ± EPI: PAβN,[7]; + 25 μM PAβN,32 µg/mL
same,MIC,"[7]; Escherichia coli, no EPI, read-out: MIC (μg/ml) ± EPI: None",64 µg/mL
same,MIC (μg/ml) ± EPI: MBX2319,[8]; + 25 μM MBX2319,0.149 µg/mL
same,MIC (μg/ml) ± EPI: PAβN,[8]; + 25 μM PAβN,0.5 µg/mL
same,MIC,"[8]; ATCC700603, no EPI, read-out: MIC (μg/ml) ± EPI: None",0.71 µg/mL
same,MIC (μg/ml) ± EPI: MBX2319,[9]; + 25 μM MBX2319,0.013 µg/mL
same,MIC (μg/ml) ± EPI: PAβN,[9]; + 25 μM PAβN,0.022 µg/mL
same,MIC (μg/ml) ± EPI: MBX2319,[10]; + 25 μM MBX2319,0.044 µg/mL
same,MIC (μg/ml) ± EPI: PAβN,[10]; + 25 μM PAβN,0.063 µg/mL
same,MIC,"[10]; Klebsiella aerogenes, ATCC13048, no EPI, read-out: MIC (μg/ml) ± EPI: None",0.177 µg/mL
same,MIC (μg/ml) ± EPI: MBX2319,"[11]; Shigella flexneri ATCC 12022, + 25 μM MBX2319",0.016 µg/mL
same,MIC (μg/ml) ± EPI: PAβN,"[11]; Shigella flexneri ATCC 12022, + 25 μM PAβN",0.031 µg/mL
same,MIC,"[11]; Shigella flexneri, ATCC12022, read-out: MIC (μg/ml) ± EPI: None",0.063 µg/mL
same,MIC (μg/ml) ± EPI: MBX2319,[12]; + 25 μM MBX2319,0.016 µg/mL
same,MIC (μg/ml) ± EPI: PAβN,[12]; + 25 μM PAβN,0.044 µg/mL
same,MIC,"[12]; ATCC14028, no EPI, read-out: MIC (μg/ml) ± EPI: None",0.062 µg/mL
same,MIC (μg/ml) ± EPI: MBX2319,[13]; + 25 μM MBX2319,1 µg/mL
same,MIC (μg/ml) ± EPI: PAβN,[13]; + 25 μM PAβN,0.5 µg/mL
same,MIC,"[13]; Pseudomonas aeruginosa, ATCC27853, no EPI, read-out: MIC (μg/ml) ± EPI: None",1 µg/mL
